Results on 47 compounds are retold here after patent US20120165304A1, “6,7,8,9-Tetrahydro-5H-1,4,7,10a-tetraaza-cyclohept[f]indene derivatives, pharmaceutical compositions containing these compounds, their use and processes for preparing them” (BOEHRINGER INGELHEIM INTERNATIONAL GMBH, priority 2008, published 2012).

Molecules are shown by their SMILES.

For this assay, the target named is human 5-HT2C receptor (Homo sapiens, UniProt P28335, I156V/I160V/N158S). As to the kind of experiment: cell-based.
Chain of human 5-HT2C receptor (P28335 33-458 I156V/N158S/I160V limits assumed): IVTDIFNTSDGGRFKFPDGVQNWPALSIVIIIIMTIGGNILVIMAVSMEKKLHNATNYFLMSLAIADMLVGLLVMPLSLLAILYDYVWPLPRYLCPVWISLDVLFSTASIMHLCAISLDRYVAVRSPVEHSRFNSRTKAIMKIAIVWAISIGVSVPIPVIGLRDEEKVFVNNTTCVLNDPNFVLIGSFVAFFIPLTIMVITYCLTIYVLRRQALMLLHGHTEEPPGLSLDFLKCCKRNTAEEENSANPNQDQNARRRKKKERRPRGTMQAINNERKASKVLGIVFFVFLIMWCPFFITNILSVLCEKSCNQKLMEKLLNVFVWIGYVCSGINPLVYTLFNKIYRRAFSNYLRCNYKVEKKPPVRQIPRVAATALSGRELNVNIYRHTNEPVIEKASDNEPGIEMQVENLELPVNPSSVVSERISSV
The compound `C#CCCNC(=O)C1CN(c2c3c(nc4ccnn24)CCNCC3)C1` [Example 37.48] displayed a 50% effective concentration (EC50) of 141 nM.

`Cc1csc(C2CN(c3c4c(nc5ccnn35)CCNCC4)C2)n1` [Example 11, 10-[3-(4-Methyl-thiazol-2-yl)-azetidin-1-yl]-6,7,8,9-tetrahydro-5H-1,4,7,10a-tetraaza-cyclohepta[f]indene]: the EC50 came to 161 nM.

The compound `CN(C)C(=O)[C@H]1CCN(c2c3c(nc4ccnn24)CCNCC3)C1` [Example 1.63] displayed a half-maximal effective concentration (EC50) of 2680 nM.

The compound `Cc1ccccc1OCC1CN(c2c3c(nc4ccnn24)CCNCC3)C1` [Example 15.1] came in with an EC50 of 6 nM.

Consider `CC1CCN(C(=O)C2CN(c3c4c(nc5ccnn35)CCN(C)CC4)C2)C1` (centres unmarked) [Example 36.42], for which the concentration giving a half-maximal response (EC50) amounted to 741 nM.

As to `CN(Cc1cccc(Cl)c1)C(=O)C1CN(c2c3c(nc4ccnn24)CCNCC3)C1` [Example 31.39], the 50% effective concentration (EC50) stood at 44 nM.

With `C[C@H](c1ccccc1)N(C)C(=O)C1CN(c2c3c(nc4ccnn24)CCNCC3)C1` [Example 31.90], the 50% effective concentration (EC50) turned out to be 465 nM.

In turn, `O=C(C1CN(c2c3c(nc4ccnn24)CCNCC3)C1)N1CCC(O)(c2cc(F)cc(F)c2)CC1` [Example 31.195] gave a concentration for a half-maximal effect (EC50) of 7 nM.

For the compound `CN1CCC(CNC(=O)C2CN(c3c4c(nc5ccnn35)CCNCC4)C2)CC1` [Example 37.89], the midpoint of the response, the EC50, lay at 19 nM.

Regarding `O=C(N[C@H]1C[C@@H]1c1ccccc1)C1CN(c2c3c(nc4ccnn24)CCNCC3)C1` [Example 31.28], the EC50 came to 314 nM.

The compound `FC(F)(F)c1cccc(OC2CN(c3c4c(nc5ccnn35)CCNCC4)C2)n1` [Example 20.10] showed a 50% effective concentration (EC50) of 181 nM.

For `c1cncc(Cn2c(C3CN(c4c5c(nc6ccnn46)CCNCC5)C3)nc3ccccc32)c1` [Example 34.27], the EC50 amounted to 46 nM.

Consider `O=C(C1CN(c2c3c(nc4ccnn24)CCNCC3)C1)N1C2CCCCC1CCC2` [Example 31.158], for which the midpoint of the response, the EC50, lay at 1230 nM.

For `O=C(C1CN(c2c3c(nc4ccnn24)CCNCC3)C1)N1CCC1` [Example 31.7], a half-maximal effect (EC50) was put at 3300 nM.

On to `C[C@@H]1CN(C(=O)C2CN(c3c4c(nc5ccnn35)CCN(C)CC4)C2)C[C@H](C)O1` [Example 36.21], for which the EC50 is 161 nM.

As for `CN(CCc1cccc(C(F)(F)F)c1)C(=O)C1CN(c2c3c(nc4ccnn24)CCNCC3)C1` [Example 31.89], the EC50 came to 133 nM.

`CN1CCc2nc3ccnn3c(N3CC(C(=O)N4CCN(C(=O)C5CCCCC5)CC4)C3)c2CC1` [Example 36.22] had an EC50 of 181 nM.

As to `CC(=O)NC1CCN(C(=O)C2CN(c3c4c(nc5ccnn35)CCN(C)CC4)C2)CC1` [Example 36.28], the EC50 came out at 380 nM.

`O=C(C1CN(c2c3c(nc4ccnn24)CCNCC3)C1)N1CCC2(CC2)C1` [Example 31.14] gave a half-maximal effective concentration (EC50) of 87 nM.

As to `O=C(C1CN(c2c3c(nc4ccnn24)CCNCC3)C1)N1CCc2ccccc2C1` [Example 31.60], a half-maximal response (EC50) required 57 nM.

In turn, `CN1CCC2(CCN(C(=O)C3CN(c4c5c(nc6ccnn46)CCNCC5)C3)CC2)C1=O` [Example 31.151] gave an EC50 of 319 nM.

Compound `N#CC1CN(c2c3c(nc4ccnn24)CCNCC3)C1` [Example 22, 1-(6,7,8,9-Tetrahydro-5H-1,4,7,10a-tetraaza-cyclohepta[f]inden-10-yl)-azetidine-3-carbonitrile] displayed a concentration for a half-maximal effect (EC50) of 1020 nM.

For the compound `CC1Cc2ccccc2N1C(=O)C1CN(c2c3c(nc4ccnn24)CCNCC3)C1` (centres unmarked) [Example 31.234], a half-maximal effect (EC50) was put at 380 nM.

`O=C1CCCN1c1ccc(OC2CN(c3c4c(nc5ccnn35)CCNCC4)C2)c(Cl)c1` [Example 35.26] returned an EC50 of 115 nM.

`CC(C)CNC(=O)C1CN(c2c3c(nc4ccnn24)CCNCC3)C1` [Example 37.78] yielded a 50% effective concentration (EC50) of 82 nM.

Regarding `CN1CCc2nc3ccnn3c(N3CC(C(=O)NC4CC(C)(C)NC(C)(C)C4)C3)c2CC1` [Example 36.9], the concentration giving a half-maximal response (EC50) worked out at 379 nM.

Turning to `Fc1ccc(OC2CN(c3c4c(nc5ccnn35)CCNCC4)C2)cc1` [Example 1.6], the response was half-maximal at 23 nM (EC50).

Compound `CC(C)CN1CCN(C(=O)C2CN(c3c4c(nc5ccnn35)CCNCC4)C2)CC1` [Example 37.15] came in with an EC50 of 3 nM.

For `O=C(C1CN(c2c3c(nc4ccnn24)CCNCC3)C1)N(Cc1ccccc1)Cc1ccc(F)cc1` [Example 31.197], it took 122 nM to reach a half-maximal effect (EC50).

`c1nn2c(N3CCC3)c3c(nc2c1C1CC1)CCNCC3` [Example 29, 10-Azetidin-1-yl-3-cyclopropyl-6,7,8,9-tetrahydro-5H-1,4,7,10a-tetraaza-cyclohepta[f]indene] gave an EC50 of 81 nM.

As for `O=C(C1CN(c2c3c(nc4ccnn24)CCNCC3)C1)N1CCC(c2ccc(Cl)cc2)CC1` [Example 31.115], a half-maximal response (EC50) required 55 nM.

As for `C#CC1CCN(C(=O)C2CN(c3c4c(nc5ccnn35)CCNCC4)C2)C1` (centres unmarked) [Example 38, (3-Ethynyl-pyrrolidin-1-yl)-[1-(6,7,8,9-tetrahydro-5H-1,4,7,10a-tetraaza-cyclohepta[f]inden-10-yl)-azetidin-3-yl]-methanone], the concentration for a half-maximal effect (EC50) is 6 nM.

On to `O=C(C1CN(c2c3c(nc4ccnn24)CCNCC3)C1)N1CC[C@@H](F)C1` [Example 31.205], for which it took 116 nM to reach a half-maximal effect (EC50).

Take `Cc1ncccc1OC1CN(c2c3c(nc4ccnn24)CCNCC3)C1` [Example 35.24]: a half-maximal response (EC50) required 120 nM.

With `CC(=O)N(C)C1CCN(C(=O)C2CN(c3c4c(nc5ccnn35)CCN(C)CC4)C2)CC1` [Example 36.31], the concentration giving a half-maximal response (EC50) was determined as 187 nM.

As to `Cc1ccc(C2CCN(C(=O)C3CN(c4c5c(nc6ccnn46)CCNCC5)C3)CC2)cc1` [Example 31.144], the half-maximal effective concentration (EC50) was 66 nM.

`Cc1cnn2c(N3CC(C(=O)N4CCC5(CC4)OCc4ccccc45)C3)c3c(nc12)CCNCC3` [Example 31.242]: a half-maximal response (EC50) required 86 nM.

In the case of `C#CC(C)(C)NC(=O)C1CN(c2c3c(nc4ccnn24)CCNCC3)C1` [Example 37.91], the EC50 came to 301 nM.

In turn, `O=C(C1CN(c2c3c(nc4ccnn24)CCNCC3)C1)N1CCC2(CCCCC2)CC1` [Example 31.35] yielded an EC50 of 50 nM.

Consider `Cc1cnn2c(N3CC(C(=O)N4CCC(C(F)(F)F)CC4)C3)c3c(nc12)CCNCC3` [Example 31.237], for which a half-maximal response (EC50) required 11 nM.

The compound `CCOC1CN(c2c3c(nc4ccnn24)CCNCC3)C1` [Example 20.2] had an EC50 of 658 nM.

As to `CN(Cc1cccs1)C(=O)C1CN(c2c3c(nc4ccnn24)CCNCC3)C1` [Example 31.43], the EC50 came to 35 nM.

The compound `CCNC(=O)C1CN(c2c3c(nc4ccnn24)CCNCC3)C1` [Example 37.95] had an EC50 of 742 nM.

As for `CN1CCc2nc3ccnn3c(N3CC(C(=O)N4CCN(C5CCCC5)CC4)C3)c2CC1` [Example 36.13], the 50% effective concentration (EC50) turned out to be 114 nM.

`COc1ccccc1C1CCN(c2c3c(nc4ccnn24)CCNCC3)C1` (centres unmarked) [Example 1.21] came in with an EC50 of 1150 nM.

As to `CN(C(=O)C1CCCN(c2c3c(nc4ccnn24)CCNCC3)C1)c1ccccc1` (centres unmarked) [Example 1.60], the midpoint of the response, the EC50, lay at 1590 nM.

On to `c1ccc(CC2CN(c3c4c(nc5ccnn35)CCNCC4)C2)nc1` [Example 18, 10-(3-Pyridin-2-ylmethyl-azetidin-1-yl)-6,7,8,9-tetrahydro-5H-1,4,7,10a-tetraaza-cyclohepta[f]indene], for which the half-maximal effective concentration (EC50) amounted to 451 nM.
